# From paper PMC4080778, “Steroid conversion with CYP106A2 – production of pharmaceutically interesting DHEA metabolites” (Microbial Cell Factories, 2014)
# Biological target: T1, CYP106A2 (Priestia megaterium, UniProt Q06069)
# T1 sequence (Q06069 1-410): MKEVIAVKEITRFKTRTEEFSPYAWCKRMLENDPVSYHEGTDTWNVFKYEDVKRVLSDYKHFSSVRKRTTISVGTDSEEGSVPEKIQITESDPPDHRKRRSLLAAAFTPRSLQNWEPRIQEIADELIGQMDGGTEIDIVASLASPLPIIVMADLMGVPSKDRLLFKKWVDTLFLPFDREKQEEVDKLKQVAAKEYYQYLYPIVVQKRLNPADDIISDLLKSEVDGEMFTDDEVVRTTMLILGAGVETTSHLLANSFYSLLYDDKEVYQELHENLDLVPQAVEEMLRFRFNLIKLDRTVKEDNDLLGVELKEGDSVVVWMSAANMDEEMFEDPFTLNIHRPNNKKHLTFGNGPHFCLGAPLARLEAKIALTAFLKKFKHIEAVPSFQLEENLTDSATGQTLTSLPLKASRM
# Assay: UV-vis difference spectroscopy titration (type I high-spin shift, tandem cuvettes)
# Type: binding
compound,measurement,value
C[C@]12CCC(=O)C=C1CC[C@@H]1[C@@H]2CC[C@]2(C)C(=O)CC[C@@H]12 [androstenedione],Kd,92 ± 11 µM
